# Laboratory results from US7442541B2, “β-glucan-containing fat and oil composition and novel microorganism capable of producing β-glucan” (Adeka Corporation, priority 2002, dated 2008).
# What was measured:
# Type in all cases: cell-based, Aureobasidium pullulans
# [1] = system: IFO-4466, IFO-6353, and IFO-7757; assay: Growth of reference strains on solid medium containing cycloheximide; conditions: solid medium (agar plate), 26° C., 10 days
# Procedure: This is the case that the formation of a colony of 0.1 mm or greater, preferably 0.3 mm or greater, still preferably 0.5 mm or greater in diameter as a result of fungous proliferation is observed on a solid medium having the cycloheximide concentration that IFO strains is not allowed to grow after a strain is inoculated on the solid medium (agar plate) containing cycloheximide and cultured at 26° C. for 10 days. Usually, these IFO strains are not allowed to grow on a solid medium containing cycloheximide at concentrations of 20 μg/ml or higher.
# IFO-7757 = assay: Cycloheximide resistance test; conditions: strain IFO-7757, YM agar, 26° C., 10 days
# Procedure: (§1) The strains obtained by the screening in Test Examples 1 and 2 and IFO-4466, IFO-6353, and IFO-7757 purchased from Institute for Fermentation, Osaka, i.e., were tested for cycloheximide resistance as follows. Each strain was grown on YM agar medium (Difco) at 26° C. for 5 days. YM agar media (Difco) containing 5, 10, 20, 40, and 80 μg/ml of cycloheximide were prepared. The grown strain was inoculated into each of the cycloheximide-containing media using a sterile toothpick and incubated at 26° C. for 10 days. The plates were examined for colonies. The diameters of the colonies, if formed, were measured.
# IFO-6353 = assay: Cycloheximide resistance test; conditions: strain IFO-6353, YM agar, 26° C., 10 days
# Procedure: as §1
smiles,measurement,setting,value
"C[C@@H]1C[C@@H]([C@H](O)CC2CC(=O)NC(=O)C2)C(=O)[C@@H](C)C1 [Cycloheximide, cycloheximide]",cycloheximide concentration at which IFO strains are not allowed to grow,[1],≥ 20 µg/mL
same,Colony diameter,IFO-7757; cycloheximide 5 μg/ml,0 mm
same,Colony diameter,IFO-7757; cycloheximide 10 μg/ml,0 mm
same,Colony diameter,IFO-7757; cycloheximide 20 μg/ml,0 mm
same,Colony diameter,IFO-7757; cycloheximide 40 μg/ml,0 mm
same,Colony diameter,IFO-7757; cycloheximide 80 μg/ml,0 mm
same,Colony diameter,IFO-6353; cycloheximide 5 μg/ml,7.3 mm
same,Colony diameter,IFO-6353; cycloheximide 10 μg/ml,2.3 mm
same,Colony diameter,IFO-6353; cycloheximide 20 μg/ml,0 mm
same,Colony diameter,IFO-6353; cycloheximide 40 μg/ml,0 mm
same,Colony diameter,IFO-6353; cycloheximide 80 μg/ml,0 mm
